Entries after “also recorded” stand apart in the source; their conditions may differ.

As usually defined, the kcat is the maximal rate divided by the concentration of active sites. A word on the Km: it is the concentration of substrate that gives half-maximal velocity. Usually Vmax stands for the top rate of the reaction or transport when substrate is in excess.

Data set [1] can be described thus: Spontaneous interconversion of 2,7-anhydro-Neu5Ac and Neu5Ac by 1H NMR. It counts as physicochemical. Conditions: up to 24 h at 37 °C. As to the method:
The products of the reaction were thus further monitored by ^1H nuclear magnetic resonance (NMR). […] (Fig. 3). These peaks are characteristic of 2,7-anhydro-α-N-acetylneuraminic acid (2,7-anhydro-Neu5Ac) and arise from the protons in positions 6 and 7 (Fig. 3a). Peaks corresponding to 2,7-anhydro-Neu5Ac were observed when RgNanH was incubated in presence of 4MU-Neu5Ac (Fig. 3a) or 3′SL (Fig. 3b). […] The signals of 2,7-anhydro-Neu5Ac and their chemical shifts are shown in Supplementary Table 1. This product was absent in control experiments using A. muciniphila sialidases (AkmNan0625 and AkmNan1835) or in absence of enzyme, confirming the specificity of the enzymatic reaction (Supplementary Fig. 5).
Extracts (400 μl) were mixed with 200 μl of D2O and 20 μl of a solution of D2O containing 1 mM of TSP (sodium 3-(trimethylsilyl)-propionate-d4). Samples (500 μl) were transferred into a 5-mm NMR tube for spectral acquisition. The ^1H NMR spectra were recorded at 600 MHz on a Bruker Avance spectrometer (Bruker BioSpin GmbH, Rheinstetten, Germany) running Topspin 2.0 software, and were fitted with a cryoprobe and a 60-slot autosampler. Each ^1H NMR spectrum was acquired with 128 scans, a spectral width of 8,012.8 Hz, an acquisition time of 2.04 s and a relaxation delay of 2.0 s. […]

For data set [2], the target named is T1, RgNanH (Mediterraneibacter gnavus (Ruminococcus gnavus), UniProt A7B557).
T1 sequence (A7B557 26-723): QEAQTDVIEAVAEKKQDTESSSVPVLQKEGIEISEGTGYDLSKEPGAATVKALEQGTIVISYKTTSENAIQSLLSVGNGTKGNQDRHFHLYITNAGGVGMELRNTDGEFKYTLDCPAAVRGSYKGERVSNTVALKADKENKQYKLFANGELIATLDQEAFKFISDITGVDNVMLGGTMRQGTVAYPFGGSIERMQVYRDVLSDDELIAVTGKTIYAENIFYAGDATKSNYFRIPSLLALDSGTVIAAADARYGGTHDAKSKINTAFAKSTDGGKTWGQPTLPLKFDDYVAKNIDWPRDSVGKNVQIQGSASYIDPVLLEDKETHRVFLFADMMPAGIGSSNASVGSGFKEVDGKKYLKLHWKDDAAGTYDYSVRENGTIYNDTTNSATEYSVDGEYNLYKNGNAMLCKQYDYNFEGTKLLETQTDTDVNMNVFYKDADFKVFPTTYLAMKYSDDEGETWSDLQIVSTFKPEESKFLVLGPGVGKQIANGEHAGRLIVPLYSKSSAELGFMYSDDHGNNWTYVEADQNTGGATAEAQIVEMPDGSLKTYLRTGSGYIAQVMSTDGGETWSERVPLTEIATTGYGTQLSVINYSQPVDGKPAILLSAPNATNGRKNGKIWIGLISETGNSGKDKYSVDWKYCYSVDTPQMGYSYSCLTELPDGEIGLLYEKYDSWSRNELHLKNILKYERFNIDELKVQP
Put plainly: Kinetic parameters of RgNanH with sialylated substrates. The data set is classed as biochemical, Ruminococcus gnavus ATCC 29149. Particulars: pH 6.5, 37 °C. As to the method:
(§1) The purified enzymes were incubated with the substrate in buffer made from 20 mM Na2HPO4 and 20 mM NaH2PO4 adjusted to pH 6.5 containing 1 mg ml^−1 BSA at 37 °C unless otherwise stated. For 4MU-Neu5Ac, the progression of the reaction was monitored by the release of the MU using a 96-well plate reader (BMG Labtech, Ortenberg, Germany) using fluorescence with an excitation at 340 nm and an emission at 420 nm. For determining the optimal temperature, the assay was carried out in 20 mM PBS at pH 7.4. For determining the optimal pH, the assay was carried out at 37 °C using buffer made from 20 mM Na2HPO4 and 20 mM NaH2PO4 in varying proportions to obtain the desired pH. PNP release from PNP-Neu5Ac was monitored in a similar way measuring absorbance at 405 nm every 60 s. For 3′SL, the reaction was monitored by HPAEC-PAD. An aliquot of the reaction was removed from the main reaction volume at the reaction stopped by boiling for 20 min, the enzyme was then removed by centrifugation at 17,000g for 10 min and filtration with a 0.2-μm filter (Millipore, Billerica, USA). The sugars were separated by HPAEC with an isocratic gradient of 100 mM NaOH and 100 mM NaAC at 1 ml min^−1 on a CarboPac PA1 protected with a guard column and detected using PAD on a Dionex ICS5000 system (Thermo Scientific, Hemel Hempstead, UK). The column was cleaned with 10 ml of 500 mM NaOH and 500 mM NaAc, and the column was re-equilibrated with 100 mM NaOH and 100 mM NaAc. An internal standard of fucose was used to quantify the results.
For 4MU-Neu5Ac and 3′SL, the rate of hydrolysis without enzyme was not significant, thus raw data were used. However, for pNP-Neu5Ac, the rate of hydrolysis without enzyme was significant, thus the rate with enzyme was corrected by the subtraction of the rate without enzyme at each concentration of substrate. For 3′SL, the rate of reaction was calculated by plotting the amount of substrate remaining over the course of >50 % of the reaction using the following equation[58]: […]
Where k is kcat/KM × enzyme concentration, t is time, [S0] and [St] are substrate concentrations at time 0 and t, respectively.
Kinetic data were obtained from at least duplicate (usually triplicate) experiments, and the kinetic parameters were calculated by fitting the initial raw data to the Michaelis–Menten equation using a nonlinear regression analysis programme (Prism 6, GraphPad, San Diego, USA), and error bars (s.e.m.) are shown.

Data set [3] deals with T1, RgNanH. The data set can be described thus: Specificity against sialyl-oligosaccharides, HPAEC-PAD. It counts as biochemical, Ruminococcus gnavus ATCC 29149. More on the design: key to Activity RgNanH: +: Activity was defined as disappearance of the substrate peak and appearance of a lower-molecular weight peak, which could correspond to the desialylated substrate. Particulars: 37 °C; for Activity RgNanH: substrate 1 mM, 1 nM enzyme, pH 6.5, overnight. How it is done:
(§2) Figure 2 Specificity of RgNanH towards sialylated oligosaccharides. The enzymes were incubated with sialylated substrates at 37 °C, pH 6.5, overnight and the reaction products were analysed by HPAEC-PAD. Control reactions without enzyme were also performed. The injection peak is marked (inj). Glycerol (gly) was also present in AkmNan0625. (a) Standards (Lac, Neu5Ac, 3′SL and 6′SL), (b) 3′SL, (c) 6′SL and (d) 3'-α-sialyl-N-acetyllactosamine (3′SLacNAc). AkmNan1835 has a similar profile to […].
as §1
(§3) For specificity tests against sialylated oligosaccharides (1 mM) and glycoproteins (1 mg ml^−1), 1 nM of enzyme was incubated with the substrate at 37 °C, pH 6.5, overnight.

In data set [4] the test system is AkmNan0625 and AkmNan1835. Put plainly: Specificity against sialyl-oligosaccharides, HPAEC-PAD (control sialidases). It counts as biochemical, Akkermansia muciniphila. More on the design: key to Activity AkmNan0625 and AkmNan1835: +: Activity was defined as disappearance of the substrate peak and appearance of a lower-molecular weight peak, which could correspond to the desialylated substrate. Particulars: 37 °C; for activity of AkmNan0625 and AkmNan1835 on substrate (in words): pH 6.5; for Activity AkmNan0625 and AkmNan1835: substrate 1 mM, 1 nM enzyme, pH 6.5, overnight. How it is done:
as §2
All chemicals were obtained from Sigma (St Louis, USA) unless otherwise stated. The A. muciniphila sialidases, termed here AkmNan0625 and AkmNan1835, were obtained by His-Tag overexpression of their genes (Amuc_0625 and Amuc_1835, respectively)[56] in E. coli BL21(DE3) and subsequent purification to homogeneity by immobilized metal affinity chromatography as described below. The sialylated oligosaccharides and OC were obtained from Carbosynth (Berks, UK).
as §1, §3

For the next data set, the system named is R. gnavus ATCC 29149. Also noted: method as in PMID 24204617. Particulars: R. gnavus ATCC 29149; cited from earlier work.
In data set [5] the target is T1, RgNanH. Put plainly: Hydrolysis of sialic acid from glycoproteins monitored by 1H NMR. The data set is classed as biochemical, Ruminococcus gnavus ATCC 29149. Conditions: glycoprotein 1 mg ml^−1, 1 nM enzyme, 37 °C, pH 6.5, overnight. How it is done:
The ability of RgNanH to hydrolyse sialic acid from glycoproteins was investigated by incubation of the enzyme with human α-1-acid glycoprotein (AGP) and fetuin (Fet) both of which are known to contain α2-3 sialyl linkages, while asialo-Fet was also included as a control.
as §3
Extracts (400 μl) were mixed with 200 μl of D2O and 20 μl of a solution of D2O containing 1 mM of TSP (sodium 3-(trimethylsilyl)-propionate-d4). Samples (500 μl) were transferred into a 5-mm NMR tube for spectral acquisition. The ^1H NMR spectra were recorded at 600 MHz on a Bruker Avance spectrometer (Bruker BioSpin GmbH, Rheinstetten, Germany) running Topspin 2.0 software, and were fitted with a cryoprobe and a 60-slot autosampler. Each ^1H NMR spectrum was acquired with 128 scans, a spectral width of 8,012.8 Hz, an acquisition time of 2.04 s and a relaxation delay of 2.0 s. The ‘noesypr1d' presaturation sequence was used to suppress the residual water signal with a low-power selective irradiation at the water frequency during the recycle delay and a mixing time of 100 ms. Spectra were transformed with a 0.3-Hz line broadening, manually phased, baseline corrected and referenced by setting the TSP methyl signal to 0 p.p.m.

In data set [6] the target is T1, RgNanH. Put plainly: Inhibition of RgNanH activity against 4MU-Neu5Ac by neuraminidase inhibitors. Particulars: 4MU-Neu5Ac 0.51 mM, 1 nM enzyme; Neu5Ac 0-0.3 mM, Lac 0-1.5 mM; pH 6.5, 37 °C. The data set is classed as biochemical, Ruminococcus gnavus ATCC 29149. How it is done: Figure 1 Kinetic analysis of the hydrolysis of sialylated substrates by RgNanH in presence or absence of inhibitors. Substrate (a) 4MU-Neu5Ac or (b) PNP-Neu5Ac was incubated with RgNanH ([…] and 0.43 nM, respectively) at 37 °C, pH 6.5 and the release of product measured using a plate reader. (c) Inhibition of RgNanH (1.00 nM) incubated with 4MU-Neu5Ac (0.51 mM) by zanamivir (●), Neu5Ac2en (▪), siastatin B (▴) and OC (♦), the rates are normalized to a % of the uninhibited rate. [I] is the inhibitor concentration. (d) 3′SL was incubated with RgNanH (2.25 nM) and the release of product measured by HPAEC-PAD. Experiments were done at least in duplicate (usually triplicate) and the error bars show the s.e.m.
as §1, with “results. […]” for “results.”

`CC(=O)N[C@H]1[C@H]2O[C@@](C(=O)O)(C[C@@H]1O)O[C@@H]2[C@H](O)CO` [2,7-anhydro-Neu5Ac, 2,7-anhydro-α-N-acetylneuraminic acid]: the “spontaneous conversion between 2,7-anhydro-Neu5Ac and Neu5Ac” value in data set [1] is on record as “no spontaneous conversion”.

For Neu5Ac-α-2-3-Gal-β-1-4-Glc [3′SL], on RgNanH [2] (substrate inhibition, s.e.m.), the Ki was determined as 760 ± 230 µM. The kcat at RgNanH [2] (substrate of RgNanH) was 0.4283 s⁻¹. On RgNanH [2] (substrate of RgNanH, s.e.m.), the KM result was “below detection limit”, the Km is less than 100 µM and the Vmax was determined as 0.0566 ± 0.0057 µM/min. Also, the “Activity RgNanH” value on RgNanH [3] is recorded as “+”. For the same molecule, in data set [4], the “activity of AkmNan0625 and AkmNan1835 on substrate (in words)” value was “active”; the “Activity AkmNan0625 and AkmNan1835” value was “+”. Further, in the data set with R. gnavus ATCC 29149, the “ability of the bacteria to grow on the substrate” value (“ability of the bacteria to grow” below) is “grow”.

For the molecule `CC(=O)NC1C(O)CC(OC2C(O)C(O)OC(CO)C2O)(C(=O)O)OC1C(O)C(O)CO` (stereo not drawn) [3′-Sialylgalactose, Neu5Ac-α-2-3-Gal], the “Activity RgNanH” value at RgNanH [3] is on record as “+”. Moreover, the “Activity AkmNan0625 and AkmNan1835” value in data set [4] was “+”.

As for “asialo-Fet: asialo-fetuin, included as a control”, in the data set with RgNanH [5], the “activity of RgNanH against glycoprotein (2,7-anhydro-Neu5Ac peaks by 1H NMR)” value (“activity of RgNanH against glycoprotein” for short) was “no change”.

For the molecule Neu5Ac-α-2-6-Gal-β1-4-Glc [6′SL], the “enzymatic activity of RgNanH on substrate (in words)” value at RgNanH [3] (pH 6.5) is “no enzymatic activity”. In data set [4], the “activity of AkmNan0625 and AkmNan1835 on substrate (in words)” value is listed as “active”; the “Activity AkmNan0625 and AkmNan1835” value is on record as “+”. Moreover, the “ability of the bacteria to grow” value in the data set on R. gnavus ATCC 29149 was “not”.

As to “Fet: fetuin, glycoprotein known to contain α2-3 sialyl linkages”, the “activity of RgNanH against glycoprotein” value with RgNanH [5] is “showed activity; also recorded: substrates”.

On to `OC[C@H]1O[C@@H](O[C@H]2[C@H](O)[C@@H](O)C(O)O[C@@H]2CO)[C@H](O)[C@@H](O)[C@H]1O` (mixture of isomers) [lactose], for which the “Inhibition of RgNanH” value at RgNanH [6] is on record as “not inhibited”. Also, in the data set on R. gnavus ATCC 29149, the “ability of the bacteria to grow” value is given as “not”.

Turning to “AGP: human α-1-acid glycoprotein, known to contain α2-3 sialyl linkages”, the “activity of RgNanH against glycoprotein” value in the data set with RgNanH [5] was “showed activity”; with RgNanH [5] (listed as α-1-AGP), “substrates”.

These data come from article PMC4510645, “Discovery of intramolecular trans-sialidases in human gut microbiota suggests novel mechanisms of mucosal adaptation” (Nature Communications, 2015).
